The record followed here is patent US20190307820A1, “COMPOSITIONS AND METHODS OF USING STAT1/3 INHIBITORS WITH ONCOLYTIC HERPES VIRUS” (priority 2016, published 2019).

Assay [1] relates to oHSV-1 (G207) in BV2 cells. The experiment in a line: G207 replication in BV2 cells with chemical inhibitors, plaque forming assay. The class given is cell-based, HSV-1. As for the experimental part: FIG. 12A contains bar graphs showing the results of BV2 cells that were pre-treated with indicated chemical compounds for 1-2 hours and then infected with oHSV-1 at an MOI of 1. Viruses were harvested after 48 hours of oHSV-1 (G207) and indicated chemical inhibitor treatment.
FIG. 12F is a bar graph showing the results of BV2 cells that were pre-treated with indicated chemical compounds for 1-2 hours and then infected with oHSV-1 at an MOI of 1. Viruses were harvested after 48 hours of oHSV-1 (G207) and indicated chemical inhibitor treatment. After 48 hours of treatment with oHSV-1 (G207) and C16, viruses were harvested and titrated by plaque forming assay on vero cells.
(§1) U87 (5×104) alone or U87+microglia co-culture (5×104+5×104) or BV2 microglia cells (5×104) alone were seeded into a 24-well plate. After overnight incubation (to allow the cells to attach), cells were pretreated with indicated concentration of NFkB inhibitor, Bay-11 (Santa Cruz, Canada) or an indicated concentration of imidazolo-oxindole derivative C16 (Milipore, Canada) or vehicle for 1-2 hours. The cells were then infected with oHSV-1 (G207 or HrR3) virus at a MOI of 1 in presence of chemical inhibitors for another 2 days. The viruses were harvested and titrated in vero cells by plaque forming assay in 12-well plates by triplicates.
The effects of a PKR inhibitor (C16), a NFkappaB inhibitor (Bay11), and an iNOS inhibitor (aminoguanidine hydrochloride) were tested on G207 replication in BV2 cells (Example 15). […] To verify that C16-mediated viral gene transcriptional augmentation is not due to deletions in ICP34.5 and/or ICP6 in G207, the effect of C16 on wild type (KOS) and ICP6 mutated (HrR3) HSV-1 infected BV2 cells was also examined. […] Finally, whether C16 can overcome this microglia-mediated suppression of viral replication in glioma cells was examined.

Assay [2] has as its system ICP4. The experiment in a line: Western blot of ICP4 in HSV-1 infected microglia cells. Type of assay: cell-based. To be noted: G207 infected; 1 μM C16, 1 μM Bay11 or 100 μM AG; 24 hours. The method, then: (§2) FIG. 12B depicts an electrophoresis gel showing total proteins that were harvested from G2O7 infected microglia cells at 24 hours post treatment with either 1 μM of C16, 1 μM of Bay11, or 100 μM of AG. ICP27, ICP4, and […] expression was measured by western blot assay. U87 and MG co-culture were pretreated with 0.5 μM of C16 for 1 hour.
Total protein was harvested with sample buffer (125 mM Tris-HCL, 50% Glycerol, […] and 5% 2-mercaptoethanol) and boiled for 5 minutes. Protein samples were subjected to SDS-PAGE (8% gel), transferred to nitrocellulose membranes and blocked in 5% nonfat milk (Bio Rad) in TBS-Tween 20 (TBS-T) for 1 hour at room temperature. The membranes were then incubated with primary antibody against β-actin at 1:1000 (Cell Signaling, Danvers, Mass.) or anti-STAT1 antibody at 1:1000 (Cell Signaling, Danvers, Mass.) or anti-STAT3 antibody at 1:1000 (Cell Signaling, Danvers, Mass.) or anti-phospho STAT1 antibody (Tyr701) at 1:1000 (Cell Signaling, Danvers, Mass.) or anti-phospho STAT3 antibody (Tyr705) at 1:1500 (Cell Signaling, Danvers, Mass.) or anti-phosphor-eIF2a antibody (ser51) at 1:1000 (Cell Signaling, Danvers, Mass.) or anti-ICP27 antibody at 1:1000 (Abcam, Cambridge, Mass.) or anti-ICP4 antibody at 1:750 (Abcam, Cambridge, Mass.) for overnight at 4° C. […] Band density was measured by using ImageJ software (NIH, Bethesda, Md.). […]

Assay [3] relates to G207 in U87 and MG co-culture. Kind of assay: G207 replication in glioma-microglia co-cultures treated with C16. To be noted: 0.5 μM of C16. The class given is cell-based, HSV-1. The method, then:
as §2
FIG. 12D is a bar graph showing G207 viral replication increasing by 33% in glioma-microglia co-cultures treated with C16.
as §1
The effects of a PKR inhibitor (C16), a NFkappaB inhibitor (Bay11), and an iNOS inhibitor (aminoguanidine hydrochloride) were tested on G207 replication in BV2 cells (Example 15). […]

The test system of assay [4] is BTUC cells. The experiment in a line: MTT cytotoxicity assay, BTUC cells. The class given is cell-based. To be noted: 72 hours, read-out: Inhibitory concentration 50% (IC50). The method, then:
(§3) FIGS. 1A-1B are graphs that show an anti-tumor effect of nifuroxazide. (FIG. 1A) Cells were treated with indicated concentration of nifuroxazide for 72 hours. Cytotoxicity was measured by using MTT assay. (FIG. 1B) Subcutaneously U87 tumor bearing mice were peritoneally injected with indicated doses of nifuroxazide. Tumor size was measured using calipers at day 7 post nifuroxazide treatment.
(§4) In this example, the antitumor effect of nifuroxazide is evaluated in different tumor cells. Cells were treated with nifuroxazide for 72 hours (FIG. 1A). […] To verify the anti-tumor efficacy of nifuroxazide in vivo, animals with subcutaneous U87 tumor implants were injected in the peritoneum with vehicle, 1 mg/kg nifuroxazide and 50 mg/kg nifuroxazide. […] Tumor volume was reduced around 25% and 60% after 7 days treatment with 1 mg/kg nifuroxazide and 50 mg/kg nifuroxazide respectively (FIG. 1B).
(§5) Cells were seeded in a 96-well plate at a density of 1×104 (U87). After overnight incubation, cells were treated with only vehicle or indicated MOI of virus or indicated concentration of drugs or reagents. After 2 to 3 days of treatment cell viability was measured by MTT assay (Sigma, Canada) according to the manufacturer's instruction. […] After overnight incubation with lysis buffer, cell viability was measured at 595 nm using a plate reader (Envision 2103 Multilabel reader, Perkin Elmer).
For orientation: Tetrazolium dyes change colour on reduction, which living cells bring about.

The subject of assay [5] is ICP4. Kind of assay: Western blot of ICP4 in HrR3 infected U87 cells. Type of assay: cell-based, HSV-1. To be noted: 0.5 μM, 1 μM and 10 μM nifuroxazide, HrR3 MOI-3, 24 hours. As for the experimental part: FIGS. 4A-4C show the effect of nifuroxazide on HSV-1 gene expression. (FIG. 4A) U87 cells were treated with HrR3 viruses at a MOI-3 and indicated doses of nifuroxazide. 24 hours post infected, total protein was extracted and subjected to western blot analysis. (FIG. 4B) U87 cells were treated with HrR3 at a MOI-5 and indicated concentration of nifuroxazide for 6 hours. ICP27 mRNA level was detected by RT-qPCR. (FIG. 4C) Relative mRNA level (2^−ΔΔCT) is shown. Data are presented as mean SD, *P<0.05 vs corresponding vehicle treatment.
In this example, the underlying mechanism of nifuroxazide mediated oHSV-1 replication enhancement was examined. The effect of nifuroxazide on viral immediate early gene, ICP27 and ICP4 expression was established by Western blot analysis.
(In general: In western blotting, separated proteins are transferred to a membrane and probed.)

Assay [6] relates to MCF7 cells. Kind of assay: MTT cytotoxicity assay, MCF7 cells. The class given is cell-based. The settings on record: Homo sapiens, 72 hours, read-out: Inhibitory concentration 50% (IC50). The method, then:
as §3, §4, §5

Consider `O=C1Nc2ccc3ncsc3c2/C1=C/c1c[nH]cn1` [C16, 6,8-Dihydro-8-(1H-imidazol-5-ylmethylene)-7H-pyrrolo[2,3-g]benzothiazol-7-one], for which the enhanced the replication was 9 times in assay [1] (1 μM of C16, G207 MOI of 1, 48 hours) and 8 times in assay [1] (10 μM of C16, G207 MOI of 1, 48 hours). The “upregulated expression of ICP4” value in assay [2] was found to be 1.8 fold. For the same compound, the “G207 viral replication increased” value in assay [3] was 33%.
Take `O=C(N/N=C/c1ccc([N+](=O)[O-])o1)c1ccc(O)cc1` [nifuroxazide, Benzoic acid, 4-hydroxy-, [(5-nitro-2-furanyl)metylene]hydrazide]: the IC50 in assay [4] is approximately 15 µM; in assay [6], approximately 20 µM. Further, the ICP4 expression result in assay [5] was “not ICP4 expression”.
